Results reported in patent US20260001875A1, “AMINOPYRIMIDINYL DERIVATIVES FOR THE TREATMENT OF PARKINSON'S DISEASE” (UNIVERSITY OF DUNDEE, priority 2022, published 2026).
Read-outs that look alike come from different tables or passages of the source.

Key:
[1] = biological target: T1, LRRK2^G2019S (Mus musculus, UniProt Q5S006, G2019S); assay: Western blot LRRK2 degradation in LRRK2^G2019S MEFs; type: cell-based; settings: for Dmax: read-out: Dmax on G2019S MEFs
T1 construct: endogenous in cells; host or cells: LRRK2[G2019S] mouse embryonic fibroblasts (MEFs)
T1 sequence (Q5S006 whole entry G2019S): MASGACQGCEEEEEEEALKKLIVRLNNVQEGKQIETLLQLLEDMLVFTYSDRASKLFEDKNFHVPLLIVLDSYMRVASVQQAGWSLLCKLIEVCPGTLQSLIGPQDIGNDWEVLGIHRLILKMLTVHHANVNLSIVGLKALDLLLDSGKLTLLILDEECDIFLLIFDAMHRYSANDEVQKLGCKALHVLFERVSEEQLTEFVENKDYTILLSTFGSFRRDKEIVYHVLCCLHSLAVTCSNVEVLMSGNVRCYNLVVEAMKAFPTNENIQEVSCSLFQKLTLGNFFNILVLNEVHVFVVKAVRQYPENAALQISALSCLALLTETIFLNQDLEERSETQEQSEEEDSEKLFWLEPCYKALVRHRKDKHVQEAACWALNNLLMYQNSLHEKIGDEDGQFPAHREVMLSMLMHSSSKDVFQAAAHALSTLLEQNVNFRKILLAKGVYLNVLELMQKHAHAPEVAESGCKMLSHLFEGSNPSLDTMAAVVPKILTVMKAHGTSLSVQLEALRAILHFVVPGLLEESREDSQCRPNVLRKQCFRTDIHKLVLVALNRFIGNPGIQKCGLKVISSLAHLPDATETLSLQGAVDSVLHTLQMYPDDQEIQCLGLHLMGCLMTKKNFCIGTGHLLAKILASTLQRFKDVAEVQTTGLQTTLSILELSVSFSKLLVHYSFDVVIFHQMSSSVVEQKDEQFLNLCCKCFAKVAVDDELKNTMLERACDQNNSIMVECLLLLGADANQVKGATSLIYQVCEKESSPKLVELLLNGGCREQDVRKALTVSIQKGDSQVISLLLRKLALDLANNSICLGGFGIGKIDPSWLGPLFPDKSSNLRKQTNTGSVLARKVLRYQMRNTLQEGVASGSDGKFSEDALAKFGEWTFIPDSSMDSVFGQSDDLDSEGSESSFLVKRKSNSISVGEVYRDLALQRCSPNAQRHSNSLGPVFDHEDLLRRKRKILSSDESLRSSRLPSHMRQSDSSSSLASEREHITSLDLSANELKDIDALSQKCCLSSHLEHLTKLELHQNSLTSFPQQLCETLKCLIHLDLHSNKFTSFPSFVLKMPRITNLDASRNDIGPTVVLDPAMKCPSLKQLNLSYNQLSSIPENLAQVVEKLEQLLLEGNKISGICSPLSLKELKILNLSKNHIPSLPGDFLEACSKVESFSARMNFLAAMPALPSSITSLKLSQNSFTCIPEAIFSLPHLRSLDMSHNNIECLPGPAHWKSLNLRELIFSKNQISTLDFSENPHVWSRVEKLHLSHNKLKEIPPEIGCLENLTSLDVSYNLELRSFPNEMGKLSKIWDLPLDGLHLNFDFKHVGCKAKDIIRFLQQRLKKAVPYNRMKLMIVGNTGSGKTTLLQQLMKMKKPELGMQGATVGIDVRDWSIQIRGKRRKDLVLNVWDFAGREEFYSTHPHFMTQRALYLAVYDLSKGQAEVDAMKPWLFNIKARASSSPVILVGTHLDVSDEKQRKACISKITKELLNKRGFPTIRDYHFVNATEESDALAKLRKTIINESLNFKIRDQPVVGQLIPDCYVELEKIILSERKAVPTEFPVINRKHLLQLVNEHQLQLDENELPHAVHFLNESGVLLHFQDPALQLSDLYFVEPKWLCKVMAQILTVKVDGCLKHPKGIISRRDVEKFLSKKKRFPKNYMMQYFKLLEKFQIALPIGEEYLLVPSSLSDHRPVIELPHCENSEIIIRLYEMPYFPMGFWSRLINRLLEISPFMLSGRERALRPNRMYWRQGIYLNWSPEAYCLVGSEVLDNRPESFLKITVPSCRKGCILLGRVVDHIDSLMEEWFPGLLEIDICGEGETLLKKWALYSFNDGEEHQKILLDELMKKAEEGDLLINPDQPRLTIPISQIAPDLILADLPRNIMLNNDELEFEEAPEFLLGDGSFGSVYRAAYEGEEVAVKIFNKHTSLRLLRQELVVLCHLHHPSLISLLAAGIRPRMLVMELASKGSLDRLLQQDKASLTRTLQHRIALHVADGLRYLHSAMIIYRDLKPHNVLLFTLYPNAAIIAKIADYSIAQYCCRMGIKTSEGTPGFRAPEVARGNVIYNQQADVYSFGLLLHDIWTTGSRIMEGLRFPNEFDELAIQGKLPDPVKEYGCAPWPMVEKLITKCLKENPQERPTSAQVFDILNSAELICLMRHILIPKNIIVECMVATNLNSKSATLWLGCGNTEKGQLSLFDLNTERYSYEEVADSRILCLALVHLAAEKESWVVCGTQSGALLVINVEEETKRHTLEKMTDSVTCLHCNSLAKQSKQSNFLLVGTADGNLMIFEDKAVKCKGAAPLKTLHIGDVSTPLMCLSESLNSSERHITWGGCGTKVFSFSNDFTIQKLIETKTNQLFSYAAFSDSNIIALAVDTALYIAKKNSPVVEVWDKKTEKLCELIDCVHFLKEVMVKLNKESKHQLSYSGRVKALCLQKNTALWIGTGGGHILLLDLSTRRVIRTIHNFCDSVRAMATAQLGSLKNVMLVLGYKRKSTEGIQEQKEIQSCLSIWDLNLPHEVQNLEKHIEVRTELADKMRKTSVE
Procedure: (§1) The second-generation PROTACs were tested in parallel with the first generation PROTACs SD75, SD82, and SD100. The compounds were tested at 33 nM or […] concentrations for 4 hours or 24 hours, running two biological replicates per condition and achieving quantifications representative of both replicates. Analysis by quantitative immunoblotting was performed with readouts of the total LRRK2 (antibody recognizes epitope in C-terminus of protein), Rab10 pThr73 (physiological substrate) and LRRK2 pSer935 (biomarker phosphorylation site).
(§2) Primary MEFs were generated as described in a previous study (Wiggin et al., Mol. Cell Biol. 2002 April; 22(8):2871-81.). Briefly, the uterine horn was collected from adult female mice at day E12.5 and transferred to a 10 cm tissue culture dish containing cold PBS. Two forceps were used to tear the yolk sacs to isolate each embryo. Forceps were cleaned thoroughly with 70% ethanol between each embryo isolation. The embryos were culled, and a tissue piece was collected in a PCR tube for genotyping. The red tissue of the embryo, which grows to become the heart and liver, was removed. The remainder of the embryo was minced with a scalpel blade and incubated with 7.5 ml trypsin-EDTA solution for 10 minutes in a 37° C. tissue culture CO2 incubator. The dish was removed from the incubator and checked under a light microscope for single cells. 7.5 ml complete media was added to the trypsinised cells, and the cell suspension was transferred to a 15 ml Falcon tube, centrifuged at 1200 rpm for 5 minutes at room temperature. The trypsin was aspirated, the cell pellet was resuspended in 5 ml fresh complete media, and the cell suspension was plated in a 60 mm tissue culture dish and incubated in a 37° C., 5% CO2 tissue culture incubator. The MEFs at this stage were considered as passage 0 and were passaged and expanded for experimental use once the genotype was confirmed by allelic sequencing and immunoblotting. MEFs were cultured in Dulbecco's modified Eagle medium (DMEM) containing 10% (v/v) fetal bovine serum (FBS), 2 mM L-glutamine, 100 U/ml penicillin, and 100 μg/ml streptomycin supplemented with 1× non-essential amino acids and 1 mM sodium pyruvate.
Culturing and passaging of adherent cell lines were carried out using aseptic technique in CL1 or CL2 (for PBMC isolation) biological safety cabinets. All cells were incubated in a 37° C. incubator with 5% CO2. Cell lines were regularly tested for mycoplasma contamination. For western blot assay, the cells were seeded in 6-well plates. […] The cells were immediately placed on ice and were scraped and collected into 1.5 ml Eppendorf tubes. Cell lysates were incubated on ice for 10 minutes prior to centrifugation at 15,000 g at 4° C. for 15 minutes. The cell pellet was discarded, and supernatant was collected for analysis by quantitative immunoblotting. For long term storage, the supernatant was flash frozen and stored at −80° C. Protein concentrations of cell lysates were determined using the Bradford assay.
Cell lysates containing a quarter of a volume of 4× NuPAGE LDS sample buffer (NP0007) supplemented with 5% β-mercaptoethanol, were heated at 95° C. for 5 minutes. 15 to 20 μg of samples were loaded onto pre-cast 4-12% Bis-Tris midi 20W or 26W gels (Thermofisher Scientific®, Cat #WG1402BOX or WG1403BOX) and resolved at 130 V for 2 hours with NuPAGE MOPS SDS running buffer (Thermofisher Scientific® Cat #NP0001-02). Proteins were electrophoretically transferred onto a 0.45 μm nitrocellulose membrane (GE Healthcare, Amersham Protran® Supported 0.45 mm NC) at 90 V for 90 min on ice in transfer buffer (48 mM Tris base and 39 mM glycine supplemented with 20% methanol). The transferred membrane was blocked with 5% (w/v) skim milk powder dissolved in tris-buffered saline with tween (TBS-T) (50 mM Tris base, 150 mM sodium chloride (NaCl), 0.1% (v/v) Tween-20) at room temperature for 1 hour.

[2] = tested on: Rab10 pThr73; assay: Rab10 Thr73 dephosphorylation (immunoblot) in WT MEFs; type: cell-based, mouse; settings: Mus musculus; for inhibition at 0.033 µM / inhibition at 1 µM: read-out: pRab10 inhibited in WT MEFs; for EC50: dose response, 4 h treatment, read-out: WT MEFs pRab10-dephosphrylation EC50
Summary of the method: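 Wild-type mouse embryonic fibroblasts in 6-well plates were treated with LRRK2 PROTACs, with two biological replicates per condition. Cells were washed in PBS and lysed on ice in buffer containing phosphatase and protease inhibitors plus 1% Triton X-100, then clarified at 15,000 g. Rab10 Thr73 phosphorylation was measured by quantitative immunoblotting of 15 to 20 μg protein on 4-12% Bis-Tris gels.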

[3] = tested on: Rab10 pThr73; assay: Rab10 Thr73 dephosphorylation (immunoblot) in LRRK2^G2019S MEFs; type: cell-based, mouse; settings: Mus musculus; for inhibition at 1 µM: read-out: pRab10 inhibited in LRRK2^G2019S MEFs; for EC50: dose response, 4 h treatment, read-out: G2019S MEFs-pRab10-dephosphorylation EC50
[4] = tested on: Rab10 pThr73; assay: as above; type: cell-based; settings: Mus musculus, read-out: pRab10 inhibited in LRRK2^G2019S MEFs
[5] = biological target: T2, LRRK2^WT (Mus musculus, UniProt Q5S006); assay: Western blot LRRK2 degradation in WT MEFs; type: cell-based; settings: for Dmax: read-out: Dmax on WT MEFs
T2 construct: endogenous in cells; host or cells: primary wild-type mouse embryonic fibroblasts (MEFs)
T2 sequence (Q5S006 whole entry): as the sequence (Q5S006 whole entry G2019S) above, with S2019G counted along it
Procedure: as §1, with “Western blot degradation assays for the LRRK2 protacs were performed with WT and PD-associated LRRK2 [G2019S] mouse embryonic fibroblasts (MEFs). The second-generation” for “The second-generation”
as §2
Culturing and passaging of adherent cell lines were carried out using aseptic technique in CL1 or CL2 (for PBMC isolation) biological safety cabinets. All cells were incubated in a 37° C. incubator with 5% CO2. Cell lines were regularly tested for mycoplasma contamination. For western blot assay, the cells were seeded in 6-well plates. After treating with testing compounds at indicated concentrations and time period, the media was removed and the cells were washed with PBS and lysed in 100 μl ice-cold complete lysis buffer containing 50 mM Tris-HCl pH 7.4, 1 mM EGTA, 10 mM 2-glycerophosphate, 50 mM sodium fluoride, 5 mM sodium pyrophosphate, 270 mM sucrose, supplemented with 1 μg/ml microcystin-LR, 1 mM sodium orthovanadate, complete EDTA-free protease inhibitor cocktail (Roche) and 1% (v/v) Triton X-100. The cells were immediately placed on ice and were scraped and collected into 1.5 ml Eppendorf tubes. Cell lysates were incubated on ice for 10 minutes prior to centrifugation at 15,000 g at 4° C. for 15 minutes. The cell pellet was discarded, and supernatant was collected for analysis by quantitative immunoblotting. For long term storage, the supernatant was flash frozen and stored at −80° C. Protein concentrations of cell lysates were determined using the Bradford assay.
Cell lysates containing a quarter of a volume of 4× NuPAGE LDS sample buffer (NP0007) supplemented with 5% β-mercaptoethanol, were heated at 95° C. for 5 minutes. […]

SMILES | Dmax ([1]; dose response, 4 h treatment) [%] | inhibition at 0.033 µM ([2]; 33 nM/4 h treatment) [%] | inhibition at 0.033 µM ([2]; 33 nM/24 h treatment) [%] | inhibition at 1 µM ([2]; 1 μM/4 h treatment) [%] | inhibition at 1 µM ([2]; 1 μM/24 h treatment) [%] | EC50 [2] [nM] | inhibition at 1 µM ([3]; 1 μM/4 h treatment) [%] | inhibition at 1 µM ([3]; 1 μM/24 h treatment) [%] | EC50 [3] [nM] | inhibition at 0.033 µM ([4]; 33 nM/4 h treatment) [%] | inhibition at 0.033 µM ([4]; 33 nM/24 h treatment) [%] | Dmax ([5]; dose response, 4 h treatment) [%] | DC50 ([1]; dose response, 4 h treatment) [nM] | DC50 ([5]; dose response, 4 h treatment) [nM] | Dmax [1] [%] | Dmax [5] [%]
CNc1nc(Nc2ccc(C(=O)N3CCC4(CCN(C[C@H]5CC[C@H](CSC(C)(C)C(NC(=O)C6(F)CC6)C(=O)N6C[C@H](O)C[C@H]6C(=O)NCc6ccc(-c7scnc7C)cc6)CC5)CC4)CC3)cc2OC)ncc1Cl (stereo partly drawn) [XL02038, (2S,4R)-1-((S)-3-((((1R,4S)-4-((9-(4-((5-chloro-4-(methylamino)pyrimidin-2-yl)amino)-3-methoxybenzoyl)-3,9-diazaspiro[5.5]undecan-3-yl)methyl)cyclohexyl)methyl)thio)-2-(1-fluorocyclopropane-1-carboxamido)-3-methylbutanoyl)-4-hydroxy-N-(4-(4-methylthiazol-5-yl)benzyl)pyrrolidine-2-carboxamide] | 79 | 0 to 70 | 0 to 80 | 80 to 100 | 80 to 100 | 14 | 10 to 100 | 80 to 100 | 10 | 0 to 90 | 30 to 90 | 65 |  |  |  | 
CNc1nc(Nc2ccc(OC3CCN(C[C@H]4CC[C@H](CSC(C)(C)C(NC(=O)C5(F)CC5)C(=O)N5C[C@H](O)C[C@H]5C(=O)NCc5ccc(-c6scnc6C)cc5)CC4)CC3)cc2OC)ncc1Cl (stereo partly drawn) [XL02017, (2S,4R)-1-((S)-3-((((1R,4S)-4-((4-(4-((5-chloro-4-(methylamino)pyrimidin-2-yl)amino)-3-methoxyphenoxy)piperidin-1-yl)methyl)cyclohexyl)methyl)thio)-2-(1-fluorocyclopropane-1-carboxamido)-3-methylbutanoyl)-4-hydroxy-N-(4-(4-methylthiazol-5-yl)benzyl)pyrrolidine-2-carboxamide] | 79 | 0 to 70 | 0 to 80 | 80 to 100 | 80 to 100 | 83 | 10 to 100 | 80 to 100 | 25 | 0 to 90 | 30 to 90 | 68 | 22 | 44 |  | 
CNc1nc(Nc2ccc(C(=O)N3CCN(C[C@H]4CC[C@H](CSC(C)(C)[C@H](NC(=O)C5(F)CC5)C(=O)N5C[C@H](O)CC5C(=O)NCc5ccc(-c6scnc6C)cc5F)CC4)CC3)cc2OC)ncc1Cl (stereo partly drawn) [XL02047, (2S,4R)-1-(®-3-((((1r,4R)-4-((4-(4-((5-chloro-4-(methylamino)pyrimidin-2-yl)amino)-3-methoxybenzoyl)piperazin-1-yl)methyl)cyclohexyl)methyl)thio)-2-(1-fluorocyclopropane-1-carboxamido)-3-methylbutanoyl)-N-(2-fluoro-4-(4-methylthiazol-5-yl)benzyl)-4-hydroxypyrrolidine-2-carboxamide] | 79 | 0 to 70 | 0 to 80 | 80 to 100 | 80 to 100 | 228 | 10 to 100 | 80 to 100 | 73 | 0 to 90 | 30 to 90 | 78 | 60 | 45 |  | 
CNc1nc(Nc2ccc(C(=O)N3CCN(C[C@H]4CC[C@H](CSC(C)(C)[C@H](NC(=O)C5(F)CC5)C(=O)N5C[C@H](O)[C@H](F)C5C(=O)NCc5ccc(-c6scnc6C)cc5)CC4)CC3)cc2OC)ncc1Cl (stereo partly drawn) [XL02152, (2S,3R,4S)-1-((R)-3-((((1r,4R)-4-((4-(4-((5-chloro-4-(methylamino)pyrimidin-2-yl)amino)-3-methoxybenzoyl)piperazin-1-yl)methyl)cyclohexyl)methyl)thio)-2-(1-fluorocyclopropane-1-carboxamido)-3-methylbutanoyl)-3-fluoro-4-hydroxy-N-(4-(4-methylthiazol-5-yl)benzyl)pyrrolidine-2-carboxamide] |  | 20 to 40 |  | 75 to 90 |  | 144 | 80 to 100 |  | 63 | 20 to 50 |  |  | 44 | 62 | 80 | 68
